# Test results as given in patent US20260078130A1, “NAMPT MODULATORS, PREPARATIONS, AND USES THEREOF” (SIRONAX LTD., priority 2022, published 2026).
# pEC50: −log10 of the molar value.
# How the values were obtained:
# [1] = target: T1, human enzyme NAMPT (full length) (Homo sapiens, UniProt P43490); experiment: NMN fluorescence biochemical assay (stimulation of NMN synthesis by NAMPT); details: for pEC50: NMN synthesis by purified human NAMPT (100 nM), concentration giving half-maximal activation, read-out: Enzymatic EC50; for Enzymatic Emax: fold change of maximal activation compared to DMSO
# T1 construct: human enzyme NAMPT (full length)
# T1 sequence (P43490 whole entry): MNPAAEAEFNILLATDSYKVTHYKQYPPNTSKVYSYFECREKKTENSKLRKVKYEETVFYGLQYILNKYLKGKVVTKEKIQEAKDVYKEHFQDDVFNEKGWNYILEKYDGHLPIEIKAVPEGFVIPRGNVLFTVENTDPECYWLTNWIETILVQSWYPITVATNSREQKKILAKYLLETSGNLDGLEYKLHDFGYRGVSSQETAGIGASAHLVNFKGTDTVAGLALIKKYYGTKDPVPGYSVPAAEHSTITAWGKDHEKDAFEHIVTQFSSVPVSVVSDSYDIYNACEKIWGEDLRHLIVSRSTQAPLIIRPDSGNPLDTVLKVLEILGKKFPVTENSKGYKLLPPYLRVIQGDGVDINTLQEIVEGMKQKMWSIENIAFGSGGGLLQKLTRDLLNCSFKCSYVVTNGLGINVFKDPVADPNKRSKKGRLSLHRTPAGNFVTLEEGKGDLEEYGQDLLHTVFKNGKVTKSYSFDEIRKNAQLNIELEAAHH
# In short: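 Full-length human NAMPT (100 nM) was preincubated 15 min at 37 °C with compound in 50 mM Tris-HCl pH 7.5, 10 mM MgCl2, 2 mM DTT, then reacted 1 h at 37 °C with 50 μM NAM, 100 μM PRPP, 4 mM ATP (stated solution concentrations). NMN was derivatised with acetophenone/KOH then formic acid and read at Ex/Em 382/445 nm; EC50 and Emax (fold over DMSO) reported.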
# [2] = system: endogenous NAMPT in U2OS cells; experiment: Cellular NAD+ modulation assay (NAD/NADH-Glo, U2OS cells); type: cell-based; details: Homo sapiens, 24 hours incubation with compound; for maximal fold induction: read-out: Cellular Emax
# In short: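 NAD/NADH-Glo luminescence quantified NAD+ after acid treatment (60 °C, 15 min) and neutralization of DTAB lysates. Beforehand, U2OS cells seeded 16 h earlier received compound concentration series for 24 h at 37 °C. Values given as half-maximal activation concentration (EC50) and maximal fold change versus DMSO (Emax).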
SMILES,pEC50 [1],Enzymatic Emax [1],pEC50 [2],maximal fold induction [2]
"N#Cc1cncc(Cl)c1CC1c2ccccc2C(=O)N1Cc1ccc2[nH]nnc2c1 (stereo not drawn) [Compound 278, 4-((2-((1H-benzo[d][1,2,3]triazol-5-yl)methyl)-3-oxoisoindolin-1-yl)methyl)-5-chloronicotinonitrile]",> 6.30,A (A>3),> 6.30,> 1.5
"Cn1ncc(Cl)c1CC1c2ccccc2C(=O)N1Cc1ccc2[nH]nnc2c1 (stereo not drawn) [Compound 279, 2-((1H-benzo[d][1,2,3]triazol-5-yl)methyl)-3-((4-chloro-1-methyl-1H-pyrazol-5-yl)methyl) isoindolin-1-one]",> 6.30,B (3≥B>2),> 6.30,> 1.5
"N#Cc1nccc(Br)c1CC1c2ccccc2C(=O)N1Cc1ccc2[nH]nnc2c1 (stereo not drawn) [Compound 282, 3-((2-((1H-benzo[d][1,2,3]triazol-5-yl)methyl)-3-oxoisoindolin-1-yl)methyl)-4-bromopicolinonitrile]",> 6.30,B (3≥B>2),> 6.30,1.2 to 1.5
"N#Cc1cncc(C#N)c1CC1c2ccccc2C(=O)N1Cc1ccc2[nH]c(=O)oc2c1 (stereo not drawn) [Compound 283, 4-((3-oxo-2-((2-oxo-2,3-dihydrobenzo[d]oxazol-6-yl)methyl)isoindolin-1-yl)methyl) pyridine-3,5-dicarbonitrile]",> 6.30,A (A>3),> 6.30,1.2 to 1.5
"Cc1ccnc(C#N)c1CC1c2ccccc2C(=O)N1Cc1ccc2[nH]nnc2c1 (stereo not drawn) [Compound 284, 3-((2-((1H-benzo[d][1,2,3]triazol-5-yl)methyl)-3-oxoisoindolin-1-yl)methyl)-4-methylpicolinonitrile]",> 6.30,A (A>3),> 6.30,1.2 to 1.5
"O=C1c2ccccc2CN1Cc1ccc2[nH]nnc2c1 [Compound 289, 2-((1H-benzo[d][1,2,3]triazol-5-yl)methyl)isoindolin-1-one]",≤ 5.30,C (2≥C),4.30 to 5.30,1.2 to 1.5
"CC1c2ccccc2C(=O)N1Cc1ccc(NC(=O)NCc2ccncc2)cc1 (stereo not drawn) [Compound 291, 1-(4-((1-methyl-3-oxoisoindolin-2-yl)methyl)phenyl)-3-(pyridin-4-ylmethyl)urea]",> 6.30,C (2≥C),> 6.30,1.2 to 1.5
"CC1c2ccccc2C(=O)N1Cc1ccc(NC(=O)NCc2cn[nH]c2)cc1 (stereo not drawn) [Compound 292, 1-((1H-pyrazol-4-yl)methyl)-3-(4-((1-methyl-3-oxoisoindolin-2-yl)methyl)phenyl)urea]",> 6.30,C (2≥C),> 6.30,≤ 1.2
"NC(=O)Nc1ccc(CN2Cc3ccccc3C2=O)cc1 [Compound 293, 1-(4-((1-oxoisoindolin-2-yl)methyl)phenyl)urea]",> 6.30,C (2≥C),4.30 to 5.30,> 1.5
"COC(=O)Nc1ccc(CN2Cc3ccccc3C2=O)cc1 [Compound 294, methyl (4-((1-oxoisoindolin-2-yl)methyl)phenyl)carbamate]",≤ 5.30,C (2≥C),4.30 to 5.30,> 1.5
"Cc1cccc2c1C(=O)N(Cc1ccc(O)cc1)C2=O [Compound 295, 2-(4-hydroxybenzyl)-4-methylisoindoline-1,3-dione]",5.30 to 6.30,C (2≥C),5.30 to 6.30,1.2 to 1.5
"O=C1c2cccc(Br)c2C(=O)N1Cc1ccc(O)cc1 [Compound 296, 4-bromo-2-(4-hydroxybenzyl)isoindoline-1,3-dione]",5.30 to 6.30,C (2≥C),5.30 to 6.30,1.2 to 1.5
"Cc1ccc2c(c1)C(=O)N(Cc1ccc3[nH]c(=O)oc3c1)C2=O [Compound 297, 5-methyl-2-((2-oxo-2,3-dihydrobenzo[d]oxazol-6-yl)methyl)isoindoline-1,3-dione]",5.30 to 6.30,C (2≥C),5.30 to 6.30,1.2 to 1.5
"O=C1c2ccc(N3CCCC3)cc2CN1Cc1ccc(O)cc1 [Compound 298, 2-(4-hydroxybenzyl)-5-(pyrrolidin-1-yl)isoindolin-1-one]",5.30 to 6.30,C (2≥C),5.30 to 6.30,1.2 to 1.5
"O=C1c2ccc(Br)cc2CN1Cc1ccc2[nH]c(=O)oc2c1 [Compound 299, 6-((5-bromo-1-oxoisoindolin-2-yl)methyl)benzo[d]oxazol-2(3H)-one]",5.30 to 6.30,C (2≥C),5.30 to 6.30,1.2 to 1.5
"O=C1c2ccc(N3CCCC3)cc2CN1Cc1ccc2[nH]c(=O)oc2c1 [Compound 300, 6-((1-oxo-5-(pyrrolidin-1-yl)isoindolin-2-yl)methyl)benzo[d]oxazol-2(3H)-one]",≤ 5.30,C (2≥C),4.30 to 5.30,1.2 to 1.5
"Cn1c2ccccc2c(=O)n1Cc1ccc2[nH]nnc2c1 [Compound 301, 2-((1H-benzo[d][1,2,3]triazol-5-yl)methyl)-1-methyl-1,2-dihydro-3H-indazol-3-one]",≤ 5.30,C (2≥C),4.30 to 5.30,1.2 to 1.5
"Cn1ncc(Cl)c1CC1c2ccccc2C(=O)N1CC1CC2(CNC(=O)O2)C1 (stereo not drawn) [Compound 307, 2-((1-((4-chloro-1-methyl-1H-pyrazol-5-yl)methyl)-3-oxoisoindolin-2-yl)methyl)-5-oxa-7-azaspiro[3.4]octan-6-one]",5.30 to 6.30,B (3≥B>2),> 6.30,> 1.5
"Cc1ccnc(C#N)c1CC1c2ccccc2C(=O)N1CC1CC2(CNC(=O)O2)C1 (stereo not drawn) [Compound 308, 4-methyl-3-((3-oxo-2-((6-oxo-5-oxa-7-azaspiro[3.4]octan-2-yl)methyl)isoindolin-1-yl)methyl)picolinonitrile]",> 6.30,B (3≥B>2),> 6.30,> 1.5
"Cn1ncc(Cl)c1CC1c2cccc(F)c2C(=O)N1CC1CC2(CNC(=O)O2)C1 (stereo not drawn) [Compound 309, 2-((1-((4-chloro-1-methyl-1H-pyrazol-5-yl)methyl)-4-fluoro-3-oxoisoindolin-2-yl)methyl)-5-oxa-7-azaspiro[3.4]octan-6-one]",> 6.30,B (3≥B>2),> 6.30,> 1.5
"Cn1ncc(Cl)c1CC1c2ccc(F)cc2C(=O)N1CC1CC2(CNC(=O)O2)C1 (stereo not drawn) [Compound 310, 2-((1-((4-chloro-1-methyl-1H-pyrazol-5-yl)methyl)-5-fluoro-3-oxoisoindolin-2-yl)methyl)-5-oxa-7-azaspiro[3.4]octan-6-one]",5.30 to 6.30,B (3≥B>2),> 6.30,> 1.5
"Cn1ncc(Cl)c1CC1c2cc(C3CC3)ccc2C(=O)N1CC1CC2(CNC(=O)O2)C1 (stereo not drawn) [Compound 311, 2-((3-((4-chloro-1-methyl-1H-pyrazol-5-yl)methyl)-5-cyclopropyl-1-oxoisoindolin-2-yl)methyl)-5-oxa-7-azaspiro[3.4]octan-6-one]",5.30 to 6.30,B (3≥B>2),> 6.30,> 1.5
"Cn1ncc(Cl)c1C[C@H]1c2ccccc2C(=O)N1C/C=C/c1c[nH]nn1 [Compound 312, (S,E)-2-(3-(1H-1,2,3-triazol-4-yl)allyl)-3-((4-chloro-1-methyl-1H-pyrazol-5-yl)methyl) isoindolin-1-one]",> 6.30,B (3≥B>2),> 6.30,> 1.5
"O=C1c2ccccc2C(Cc2ncccc2Br)N1C/C(F)=C/c1c[nH]nn1 (stereo not drawn) [Compound 314, (Z)-3-((3-bromopyridin-2-yl)methyl)-2-(2-fluoro-3-(1H-1,2,3-triazol-4-yl)allyl)isoindolin-1-one]",> 6.30,B (3≥B>2),> 6.30,> 1.5
"Cn1cnc(C#N)c1CC1c2ccccc2C(=O)N1Cc1ccc2[nH]nnc2c1 (stereo not drawn) [Compound 315, 5-((2-((1H-benzo[d][1,2,3]triazol-5-yl)methyl)-3-oxoisoindolin-1-yl)methyl)-1-methyl-1H-imidazole-4-carbonitrile]",5.30 to 6.30,A (A>3),4.30 to 5.30,1.2 to 1.5
"COc1nn(C)c(CC2c3ccccc3C(=O)N2Cc2ccc3[nH]nnc3c2)c1Cl (stereo not drawn) [Compound 316, 2-((1H-benzo[d][1,2,3]triazol-5-yl)methyl)-3-((4-chloro-3-methoxy-1-methyl-1H-pyrazol-5-yl)methyl)isoindolin-1-one]",> 6.30,B (3≥B>2),> 6.30,1.2 to 1.5
"Cn1ncc(C#N)c1CC1c2ccccc2C(=O)N1Cc1ccc2[nH]nnc2c1 (stereo not drawn) [Compound 317, 5-((2-((1H-benzo[d][1,2,3]triazol-5-yl)methyl)-3-oxoisoindolin-1-yl)methyl)-1-methyl-1H-pyrazole-4-carbonitrile]",> 6.30,C (2≥C),> 6.30,1.2 to 1.5
